Holding throughout (assay type): biochemical
Assay [1] has as its system 3-deoxy-D-arabino-heptulosonate-7-phosphate synthase (DS) of the transformant carrying pCGDS1. Briefly: DS activity, inhibition by phenylalanine and tyrosine, transformant carrying pCGDS1. The following applies: Corynebacterium glutamicum ATCC 13032 carrying pCGDS1 (DS gene from K38). The protocol:
DS activities of Corynebacterium glutamicum ATCC 13032 and the transformant carrying pCGDS1 were determined according to the method of P. R. Sprinavasan, D. B. Sprinson, et al. [J. Biol. Chem., 234, 716 (1959)].

Assay [2] has as its target T1, anthranilate synthase (AS) of ATCC 39019 strain (Corynebacterium glutamicum, UniProt P06557).
T1 construct: endogenous in cells; host or cells: C. glutamicum, strain printed as ATCC 39019 (ATCC 13032 earlier in the same paragraph)
Put plainly: AS activity, inhibition by tryptophan, ATCC 39019 strain. Conditions: read-out: Tryptophan concentration effective for 50% inhibition of the AS activity.

The target in assay [3] is T2, anthranilate phosphoribosyl transferase (PRT) encoded by pCtrp1 (Corynebacterium glutamicum, UniProt P06559).
T2 construct: presence of the AS, PRT, TS-α and TS-β genes in the above 11.0 Kb DNA fragment introduced into pCtrp1; expressed in transfected cells; host or cells: C. glutamicum TA108 carrying pCtrp1
T2 sequence (P06559 1-348): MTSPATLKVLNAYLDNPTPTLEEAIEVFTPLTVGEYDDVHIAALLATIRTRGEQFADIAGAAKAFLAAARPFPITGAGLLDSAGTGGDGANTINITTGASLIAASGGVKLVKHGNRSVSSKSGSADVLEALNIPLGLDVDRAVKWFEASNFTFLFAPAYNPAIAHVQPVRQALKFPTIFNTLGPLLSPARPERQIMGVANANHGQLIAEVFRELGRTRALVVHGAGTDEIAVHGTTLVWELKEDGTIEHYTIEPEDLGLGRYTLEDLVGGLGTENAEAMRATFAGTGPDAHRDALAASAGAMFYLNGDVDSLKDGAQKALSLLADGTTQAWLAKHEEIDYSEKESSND
Put plainly: PRT activity, inhibition by tryptophan, TA108 strain carrying pCtrp1. Conditions: read-out: Tryptophan concentration effective for 50% inhibition of the PRT activity. The protocol:
(§1) AS activities of Corynebacterium glutamicum ATCC 13032 and TA108 strains carrying pCtrp1 or pCtrp57 were determined according to the method of H. Hagino, et al. [Agric. Biol. Chem., 39, 323 (1975)], and their PRT activities were determined according to the method of J. Ito and C. Yanofsky [J. Biol. Chem., 97, 734 (1969)]. AS and PRT activities of TA108 strains carrying pCtrp1 or pCtrp57 were more than 10 times as high as those of ATCC 13032 strain.

Assay [4] concerns the target T3, anthranilate synthase (AS) encoded by pCtrp1 (Corynebacterium glutamicum, UniProt P06557).
T3 construct: cell enzyme activity
Put plainly: AS activity, inhibition by tryptophan, TA108 strain carrying pCtrp1. The following applies: read-out: Tryptophan concentration effective for 50% inhibition of the AS activity. The protocol: as §1

The target in assay [5] is T4, anthranilate synthase (AS) encoded by pCtrp57 (Corynebacterium glutamicum, UniProt P06557).
T4 construct: cell enzyme activity
T4 sequence (P06558 whole entry): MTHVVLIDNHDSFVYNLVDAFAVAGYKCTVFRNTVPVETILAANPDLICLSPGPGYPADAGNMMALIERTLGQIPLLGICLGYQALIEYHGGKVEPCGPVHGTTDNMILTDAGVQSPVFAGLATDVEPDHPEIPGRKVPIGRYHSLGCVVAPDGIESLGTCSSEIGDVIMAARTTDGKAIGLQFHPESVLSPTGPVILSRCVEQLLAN
T4 sequence (P06557 whole entry): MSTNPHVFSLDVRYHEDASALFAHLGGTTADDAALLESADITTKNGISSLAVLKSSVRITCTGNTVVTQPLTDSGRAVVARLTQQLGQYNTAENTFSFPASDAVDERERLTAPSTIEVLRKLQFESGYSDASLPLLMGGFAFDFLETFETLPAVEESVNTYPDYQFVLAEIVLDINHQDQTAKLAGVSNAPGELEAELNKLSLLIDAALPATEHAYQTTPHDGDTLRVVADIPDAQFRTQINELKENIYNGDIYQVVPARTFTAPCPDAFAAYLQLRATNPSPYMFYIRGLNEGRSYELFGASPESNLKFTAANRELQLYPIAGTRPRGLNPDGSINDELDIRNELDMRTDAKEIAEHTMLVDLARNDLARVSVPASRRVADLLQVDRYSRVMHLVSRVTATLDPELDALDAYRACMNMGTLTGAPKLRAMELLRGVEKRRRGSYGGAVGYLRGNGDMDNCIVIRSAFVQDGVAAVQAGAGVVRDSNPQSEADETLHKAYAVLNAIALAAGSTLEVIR
Put plainly: AS activity, inhibition by tryptophan, TA108 strain carrying pCtrp57. Conditions: read-out: Tryptophan concentration effective for 50% inhibition of the AS activity. The method, then: (§2) TA108 strain carrying pCtrp1 was cultured in NB medium containing 10 μg/ml kanamycin till the latter stage of the logarithmic growth phase. The grown cells were collected and washed once with 50 mM Tris-maleate buffer solution (pH 6.0) by centrifugation. The washed cells were treated with 400 μg/ml N-methyl-N'-nitro-N-nitrosoguanidine in 50 mM Tris-maleate buffer solution at room temperature for 20 minutes. The treated cells were washed twice with 50 mM Tris-maleate buffer solution by centrifugation and cultured in NB medium containing 10 μg/ml kanamycin at 30° C. for 16 hours. A plasmid DNA was isolated from the grown cells in the same manner as in (1). TA108 strain was transformed with the plasmid thus obtained in the same manner as in (3), and the kanamycin-resistant Colonies grown on RCGP agar medium containing 200 μg/ml kanamycin were scraped up, and washed twice with physiological saline solution by centrifugation. The washed cells were spread on minimal agar medium M1 containing 3 mg/ml 5FT, and cultured at 30° C. for three days. […]
(§3) AS activities of Corynebacterium glutamicum ATCC 13032 and TA108 strains carrying pCtrp1 or pCtrp57 were determined according to the method of H. Hagino, et al. [Agric. Biol. Chem., 39, 323 (1975)], and their PRT activities were determined according to the method of J. Ito and C. […]

For assay [6], the target named is T5, anthranilate phosphoribosyl transferase (PRT) of ATCC 39019 strain (Corynebacterium glutamicum, UniProt P06559).
T5 construct: endogenous in cells; host or cells: C. glutamicum, strain printed as ATCC 39019 (ATCC 13032 earlier in the same paragraph)
T5 sequence (P06559 1-348): T2 sequence (P06559 1-348)
Put plainly: PRT activity, inhibition by tryptophan, ATCC 39019 strain. The following applies: read-out: Tryptophan concentration effective for 50% inhibition of the PRT activity.

The target of assay [7] is T6, anthranilate phosphoribosyl transferase (PRT) encoded by pCtrp57 (Corynebacterium glutamicum, UniProt P06559).
T6 construct: cell enzyme activity
Briefly: PRT activity, inhibition by tryptophan, TA108 strain carrying pCtrp57. Conditions: read-out: Tryptophan concentration effective for 50% inhibition of the PRT activity. The protocol:
as §2, §3

Structures are written as SMILES.

T3 sequence (P06558 whole entry): as the sequence (P06558 whole entry) above
T3 sequence (P06557 whole entry): as the sequence (P06557 whole entry) above
T1 sequence (P06557 whole entry): as above
T1 sequence (P06558 whole entry partner): as the sequence (P06558 whole entry) above

On to `N[C@@H](Cc1ccccc1)C(=O)O` [phenylalanine], for which the “Inhibition of DS in the transformant carrying pCGDS1” value in assay [1] is recorded as “free from inhibition”.

Regarding `N[C@@H](Cc1c[nH]c2ccccc12)C(=O)O` [tryptophan], the IC50 in assay [2] stood at 2 µM; in assay [3], 190 µM; in assay [4] it was 8 µM; in assay [5], 4000 µM; in assay [6] it was 190 µM; in assay [7] it was 4800 µM.

Regarding `N[C@@H](Cc1ccc(O)cc1)C(=O)O` [tyrosine], the “Inhibition of DS in the transformant carrying pCGDS1” value in assay [1] was “free from inhibition”.

The values are drawn from US5407824A, “Recombinant coryneform bacterium for producing L-tryptophan” (Kyowa Hakko Kogyo Co., Ltd., priority 1989, dated 1995).
